Where a name gives a salt, the structure may show the parent alone. Read-outs that look alike come from different tables or passages of the source.
What was measured:
[1] = molecular target: T1, human CYP1A2 (Homo sapiens, UniProt P05177); test: biochemical
T1 sequence (P05177 1-516): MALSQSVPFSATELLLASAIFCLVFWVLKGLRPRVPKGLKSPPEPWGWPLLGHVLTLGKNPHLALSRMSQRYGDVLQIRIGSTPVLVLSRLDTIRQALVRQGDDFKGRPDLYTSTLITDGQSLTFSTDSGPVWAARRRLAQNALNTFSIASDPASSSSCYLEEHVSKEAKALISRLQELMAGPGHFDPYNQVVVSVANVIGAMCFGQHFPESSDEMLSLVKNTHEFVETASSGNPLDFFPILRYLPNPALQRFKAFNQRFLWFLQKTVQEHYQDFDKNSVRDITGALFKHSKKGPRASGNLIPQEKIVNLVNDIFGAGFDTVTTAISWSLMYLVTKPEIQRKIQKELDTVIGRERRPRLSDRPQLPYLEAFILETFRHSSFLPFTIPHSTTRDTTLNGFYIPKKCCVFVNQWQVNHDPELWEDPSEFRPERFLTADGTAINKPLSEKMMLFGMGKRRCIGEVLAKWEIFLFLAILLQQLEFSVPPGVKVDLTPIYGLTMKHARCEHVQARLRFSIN

[2] = molecular target: T2, human CYP2C9 (Homo sapiens, UniProt P11712); test: biochemical
[3] = molecular target: T3, human CYP2C19 (Homo sapiens, UniProt P33261); test: biochemical
[4] = molecular target: Photinus pyralis (firefly) luciferase (Photinus pyralis, UniProt P08659); test: biochemical; type: biochemical
[5] = molecular target: T4, CYP3A4 (Homo sapiens, UniProt P08684); test: biochemical
[6] = molecular target: T4, CYP3A4
[7] = molecular target: T3, human CYP2C19; conditions: for CYP2C19 Efficacy (in parenthesis): human
[8] = molecular target: human CYP2D6 (Homo sapiens, UniProt P10635)
[9] = molecular target: T1, human CYP1A2
[10] = molecular target: T2, human CYP2C9; conditions: for CYP2C9 Efficacy (in parenthesis): human
[11] = CYP1A2 IC50 (half-maximal inhibitory concentration)
[12] = CYP2C9 IC50 (half-maximal inhibitory concentration)
[13] = CYP2C19 IC50 (half-maximal inhibitory concentration)
[14] = CYP3A4 IC50 (half-maximal inhibitory concentration)
[15] = CYP2C9 AC50 (half-maximal activity concentration)
[16] = CYP3A4 AC50 (half-maximal activity concentration)
[17] = CYP2C19 AC50 (half-maximal activity concentration)

Sequence of human CYP2D6 (P10635 whole entry): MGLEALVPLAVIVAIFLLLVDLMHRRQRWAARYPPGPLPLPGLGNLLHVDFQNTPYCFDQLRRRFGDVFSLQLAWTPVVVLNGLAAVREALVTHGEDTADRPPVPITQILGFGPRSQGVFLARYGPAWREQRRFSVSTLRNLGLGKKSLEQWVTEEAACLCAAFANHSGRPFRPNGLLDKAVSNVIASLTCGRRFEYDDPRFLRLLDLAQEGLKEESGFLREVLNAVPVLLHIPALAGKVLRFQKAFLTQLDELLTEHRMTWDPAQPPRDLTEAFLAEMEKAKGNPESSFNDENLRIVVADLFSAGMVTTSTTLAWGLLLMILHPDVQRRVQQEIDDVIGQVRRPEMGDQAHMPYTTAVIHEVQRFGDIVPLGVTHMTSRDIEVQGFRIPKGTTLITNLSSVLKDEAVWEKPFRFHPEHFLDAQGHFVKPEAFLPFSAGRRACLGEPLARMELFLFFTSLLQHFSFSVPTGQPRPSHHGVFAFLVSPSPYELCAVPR
T3 sequence (P33261 whole entry): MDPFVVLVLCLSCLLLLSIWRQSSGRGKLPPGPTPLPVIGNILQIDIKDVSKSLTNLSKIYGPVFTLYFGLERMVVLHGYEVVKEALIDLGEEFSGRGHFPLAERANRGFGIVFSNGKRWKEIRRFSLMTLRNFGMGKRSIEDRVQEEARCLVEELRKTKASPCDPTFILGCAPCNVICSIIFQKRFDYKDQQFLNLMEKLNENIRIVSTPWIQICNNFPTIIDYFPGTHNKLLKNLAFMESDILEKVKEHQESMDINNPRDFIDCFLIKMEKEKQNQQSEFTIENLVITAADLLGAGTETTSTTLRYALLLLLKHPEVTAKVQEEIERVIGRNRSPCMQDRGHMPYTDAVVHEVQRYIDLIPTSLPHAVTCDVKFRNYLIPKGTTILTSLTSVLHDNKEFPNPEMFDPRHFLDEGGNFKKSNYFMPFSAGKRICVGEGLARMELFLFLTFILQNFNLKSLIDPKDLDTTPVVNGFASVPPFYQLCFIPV
T4 sequence (P08684 whole entry): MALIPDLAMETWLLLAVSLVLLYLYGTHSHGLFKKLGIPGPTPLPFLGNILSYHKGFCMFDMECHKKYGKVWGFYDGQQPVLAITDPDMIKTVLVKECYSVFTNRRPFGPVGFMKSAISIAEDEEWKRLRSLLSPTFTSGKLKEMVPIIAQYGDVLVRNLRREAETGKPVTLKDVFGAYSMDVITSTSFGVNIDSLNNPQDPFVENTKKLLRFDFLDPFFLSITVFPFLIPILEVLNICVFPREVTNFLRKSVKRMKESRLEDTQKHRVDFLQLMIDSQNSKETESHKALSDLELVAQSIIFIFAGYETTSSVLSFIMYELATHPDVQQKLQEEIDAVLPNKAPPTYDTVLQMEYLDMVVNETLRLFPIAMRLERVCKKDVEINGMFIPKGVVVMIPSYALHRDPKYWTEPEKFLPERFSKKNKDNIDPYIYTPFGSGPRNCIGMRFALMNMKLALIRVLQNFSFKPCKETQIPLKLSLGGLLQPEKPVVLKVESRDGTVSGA
Sequence of Photinus pyralis (firefly) luciferase (P08659 whole entry): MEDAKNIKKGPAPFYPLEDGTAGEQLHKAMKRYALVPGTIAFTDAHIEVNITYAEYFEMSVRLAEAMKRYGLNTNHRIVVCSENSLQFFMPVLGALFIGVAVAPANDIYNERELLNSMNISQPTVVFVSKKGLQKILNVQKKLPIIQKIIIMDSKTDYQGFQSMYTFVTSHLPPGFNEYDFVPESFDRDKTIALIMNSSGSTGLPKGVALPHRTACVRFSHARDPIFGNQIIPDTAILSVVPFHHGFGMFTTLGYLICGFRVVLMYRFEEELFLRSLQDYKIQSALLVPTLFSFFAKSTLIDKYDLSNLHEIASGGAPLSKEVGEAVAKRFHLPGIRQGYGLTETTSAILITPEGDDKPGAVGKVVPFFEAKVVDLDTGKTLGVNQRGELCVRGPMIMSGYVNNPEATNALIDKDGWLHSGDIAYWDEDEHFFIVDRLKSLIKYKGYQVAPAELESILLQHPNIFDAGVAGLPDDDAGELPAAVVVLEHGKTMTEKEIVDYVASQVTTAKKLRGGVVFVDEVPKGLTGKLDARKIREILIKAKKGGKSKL
T2 sequence (P11712 whole entry): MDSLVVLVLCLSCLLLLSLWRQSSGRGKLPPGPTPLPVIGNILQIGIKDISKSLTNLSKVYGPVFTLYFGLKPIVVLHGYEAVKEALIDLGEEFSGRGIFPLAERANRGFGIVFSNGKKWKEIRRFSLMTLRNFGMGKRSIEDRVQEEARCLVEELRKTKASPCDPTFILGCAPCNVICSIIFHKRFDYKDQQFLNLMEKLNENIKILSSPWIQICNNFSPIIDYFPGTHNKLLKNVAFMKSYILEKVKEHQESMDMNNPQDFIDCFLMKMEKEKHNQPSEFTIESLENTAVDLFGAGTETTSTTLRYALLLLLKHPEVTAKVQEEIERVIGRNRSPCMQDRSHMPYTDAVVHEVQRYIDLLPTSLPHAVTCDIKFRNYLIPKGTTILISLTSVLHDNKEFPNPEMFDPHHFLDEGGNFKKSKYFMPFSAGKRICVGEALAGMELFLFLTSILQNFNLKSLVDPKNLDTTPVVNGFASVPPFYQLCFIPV

Work on COc1ccc(-c2ccccc2)cc1NNC(=O)OC(C)C [Bifenazate] yielded an IC50 [1, 11] of 4.75 µM, an IC50 [2, 12] of 2.33 µM and an IC50 [3, 13] of 490 nM. For the same compound, the “Luciferase IC50 (half-maximal inhibitory concentration)” value [4] was “Inactive” and the IC50 [5, 14] was 1510 nM.
With CCOP(=S)(OCC)Oc1ccc(Cl)cc1Cl [Dichlofenthion] the “CYP3A4 Efficacy (in parenthesis)” value [6] was 2.22 ± 0.62 (-82 ± 5) %, the “CYP2C19 Efficacy (in parenthesis)” value [7] was 0.44 ± 0.11 (-121 ± 28) % and the IC50 [1, 11] was 3.07 µM. The IC50 [2, 12] was 3.56 µM, the “CYP2D6 IC50 (half-maximal inhibitory concentration)” value [8] was “Inactive” and the “CYP1A2 Efficacy (in parenthesis)” value ([9]; human) was 3.07 ± 0.42 (-101 ± 5) %. For the same compound, the IC50 [3, 13] was 440 nM, the “Luciferase IC50 (half-maximal inhibitory concentration)” value [4] was “Inactive” and the “CYP2C9 Efficacy (in parenthesis)” value [10] was 3.56 ± 0 (-100 ± 3) %. The IC50 [5, 14] was 2220 nM.
O=S1(=O)OCC2C(CO1)C1(Cl)C(Cl)=C(Cl)C2(Cl)C1(Cl)Cl (stereo not shown) [Endosulfan sulfate] was tested, and the IC50 ([1]; CYP1A2 IC50) was 47.5 µM, the IC50 ([2]; CYP2C9 IC50) was 18.7 µM and the “CYP2D6 IC50” value [8] was “Inactive”. For the same compound, the IC50 ([3]; CYP2C19 IC50) was 2250 nM, the IC50 [4] was 53.2 µM and the IC50 ([5]; CYP3A4 IC50) was 220 nM.
With CCN(Cc1c(F)cccc1Cl)c1c([N+](=O)[O-])cc(C(F)(F)F)cc1[N+](=O)[O-] [Flumetralin] the IC50 [2] was 7.39 µM, the “CYP2D6 IC50 (half-maximal inhibitory concentration)” value [8] was “Inactive” and the “CYP1A2 IC50 (half-maximal inhibitory concentration)” value [9] was “Inactive”. For the same compound, the IC50 [3, 13] was 2220 nM, the “Luciferase IC50 (half-maximal inhibitory concentration)” value [4] was “Inactive” and the IC50 [5, 14] was 380 nM.
CO/N=C(/C(=O)OC)c1ccccc1COc1ccccc1C [Kresoxim-methyl] was tested, and the IC50 [1, 11] was 22 µM, the IC50 [2, 12] was 19.6 µM and the “CYP2D6 IC50 (half-maximal inhibitory concentration)” value [8] was “Inactive”. For the same compound, the IC50 [3, 13] was 510 nM, the “Luciferase IC50 (half-maximal inhibitory concentration)” value [4] was “Inactive” and the IC50 [5, 14] was 9480 nM.
CC(C)(C(=O)c1cccnc1)c1cccnc1 [Metyrapone] was tested, and the “CYP3A4 Efficacy (in parenthesis)” value [6] was 0.57 ± 0.16 (-62 ± 5) %, the “CYP2C19 IC50 (half-maximal inhibitory concentration)” value [7] was “Inactive” and the “CYP2D6 IC50 (half-maximal inhibitory concentration)” value [8] was “Inactive”. The “CYP1A2 IC50 (half-maximal inhibitory concentration)” value [9] was “Inactive”, the “Luciferase IC50 (half-maximal inhibitory concentration)” value [4] was “Inactive” and the “CYP2C9 IC50 (half-maximal inhibitory concentration)” value [10] was “Inactive”. It also gave an IC50 [5, 14] of 570 nM.
CCN(CC)C(=O)C(C)Oc1cccc2ccccc12 (stereo not shown) [Napropamide] was tested, and the IC50 [1, 11] was 25 µM, the IC50 [2, 12] was 29.9 µM and the “CYP2D6 IC50 (half-maximal inhibitory concentration)” value [8] was “Inactive”. For the same compound, the IC50 [3, 13] was 660 nM, the “Luciferase IC50 (half-maximal inhibitory concentration)” value [4] was “Inactive” and the IC50 [5, 14] was 7560 nM.
Oc1ccc2[nH]cc(CCCCN3CC=C(c4ccccc4)CC3)c2c1 [Roxindole] was tested, and the “CYP3A4 IC50” value [6] was 1.91 ± 0.48 (802 ± 30) µM, the “CYP2C19 IC50” value [7] was “Inactive” and the AC50 ([1]; CYP1A2 AC50 (half-maximal activity concentration)) was 22.4 µM. For the same compound, the IC50 ([1]; CYP1A2 IC50) was 22.4 µM, the AC50 [2, 15] was 21.2 µM and the IC50 ([2]; CYP2C9 IC50) was 21.2 µM. For the same compound, the “Luciferase IC50” value [4] was “Inactive” and the AC50 [5, 16] was 1.91 µM.
O[Si](c1ccccc1)(c1ccccc1)c1ccccc1 [Triphenylsilanol] was tested, and the “CYP3A4 IC50 (half-maximal inhibitory concentration)” value [6] was 13.71 ± 1.89 (172 ± 26) µM, the AC50 [2, 15] was 0.53 µM and the IC50 [2, 12] was 0.53 µM. For the same compound, the “CYP2D6 IC50 (half-maximal inhibitory concentration)” value [8] was “Inactive”, the “CYP1A2 AC50 (half-maximal activity concentration)” value [9] was “Inconclusive inhibitor” and the “CYP1A2 IC50 (half-maximal inhibitory concentration)” value [9] was “Inactive”. The AC50 [3, 17] was 570 nM, the IC50 [3, 13] was 570 nM and the “Luciferase IC50 (half-maximal inhibitory concentration)” value [4] was “Inactive”. It also gave an AC50 [5, 16] of 13.7 µM.
In the case of COC(=O)C1=C(C)NC(C)=C(C(=O)OCCc2ccc(N3CCN(C(c4ccccc4)c4ccccc4)CC3)cc2)C1c1cccc([N+](=O)[O-])c1 (stereo not shown) [Watanidipine], the IC50 [1] is reported as 14.6 µM, the IC50 [2] is reported as 0.49 µM and the “CYP2D6 IC50 (half-maximal inhibitory concentration)” value [8] is reported as “Inactive”. For the same compound, the IC50 [3] was 8390 nM, the “Luciferase IC50 (half-maximal inhibitory concentration)” value [4] was “Inactive” and the IC50 [5] was 2380 nM.
For O=c1c2ccccc2oc2ccccc12 [Xanthone], the AC50 [1] was 0.5 µM, the IC50 [1] was 0.5 µM and the AC50 [2] was 35.7 µM. For the same compound, the IC50 [2] was 35.7 µM, the “CYP2D6 IC50 (half-maximal inhibitory concentration)” value [8] was “Inactive” and the AC50 [3] was 29700 nM. It also gave an IC50 [3] of 29700 nM, an IC50 [4] of 23.6 µM and an AC50 [5] of 14.5 µM.
Clc1ccc(C(c2ccccc2Cl)C(Cl)(Cl)Cl)cc1 (stereo not shown) [o,p'-DDT] was tested, and the “CYP3A4 Efficacy (in parenthesis)” value [6] was 11.59 ± 3.23 (99 ± 19) %, the “CYP3A4 IC50 (half-maximal inhibitory concentration)” value [6] was 11.59 ± 3.23 (99 ± 19) µM and the “CYP2C19 Efficacy (in parenthesis)” value [7] was 0.35 ± 0.15 (-129 ± 3) %. For the same compound, the AC50 [2, 15] was 10.9 µM, the IC50 [2, 12] was 10.9 µM and the “CYP2D6 IC50 (half-maximal inhibitory concentration)” value [8] was “Inactive”. The “CYP1A2 IC50 (half-maximal inhibitory concentration)” value [9] was “Inactive”, the AC50 [3, 17] was 350 nM and the IC50 [3, 13] was 350 nM. For the same compound, the “Luciferase IC50 (half-maximal inhibitory concentration)” value [4] was “Inactive”, the “CYP2C9 Efficacy (in parenthesis)” value [10] was 10.87 ± 3.7 (-95 ± 6) % and the AC50 [5, 16] was 11.6 µM.
